Experimental data taken from ChEMBL document CHEMBL4811249, “Semisynthesis of Dolabellane Diterpenes: Oxygenated Analogues with Increased Activity against Zika and Chikungunya Viruses” (J Nat Prod, 2021).
pEC50: −log10 of the molar value. Active and inactive are the calls of the source. The calls are words filed in the database; no cut-off is given here.

Tests used:
[1] = (§1) Cytotoxicity against African green monkey Vero cells by MTT assay; type: cell-based; conditions: chlorocebus sabaeus, Vero cells
[2] = test system: Chikungunya virus; assay: Antiviral activity against CHIKV infected in African green monkey Vero cells assessed as inhibition of viral replication at 20 uM measured after 4 days relative to control; type: functional; conditions: 96 h, time 4 day; for inhibition at 20 µM: Chikungunya virus, Vero
[3] = test system: Zika virus; assay: Antiviral activity against Zika virus infected in African green monkey Vero cells assessed as inhibition of viral replication at 20 uM measured after 4 days relative to control; type: functional; conditions: 96 h, time 4 day; for inhibition at 20 µM: Zika virus, Vero; for inhibition (INH): 20 µM
[4] = Selectivity index, ratio of CC50 for African green monkey Vero cells to EC50 for CHIKV; type: toxicity; conditions: read-out: Ratio CC50/EC50
[5] = test system: Chikungunya virus; assay: Antiviral activity against CHIKV infected in African green monkey Vero cells assessed as reduction in viral replication by measuring viral titre after 72 hrs by plaque reduction assay; type: functional, organism-based
[6] = Selectivity index, ratio of CC50 for African green monkey Vero cells to EC50 for Zika virus; type: toxicity; conditions: read-out: Ratio CC50/EC50
[7] = test system: Zika virus; assay: Antiviral activity against Zika virus infected in African green monkey Vero cells assessed as reduction in viral replication by measuring viral titre after 72 hrs by plaque reduction assay; type: functional, organism-based
[8] = test system: Zika virus; assay: Virucidal activity against Zika virus infected in African green monkey Vero cells at 20 uM measured after 4 hrs relative to control; type: functional
[9] = test system: Zika virus; assay: Antiviral activity against Zika virus infected in African green monkey Vero cells assessed as inhibition of viral adsorption at 20 uM measured after 4 days by crystal violet staining based assay relative to control; type: functional; conditions: 96 h, time 4 day
[10] = test system: Chikungunya virus; assay: Virucidal activity against CHIKV infected in African green monkey Vero cells at 5 to 20 uM measured after 4 hrs; type: functional, organism-based; conditions: dose 5-20 µM
[11] = test system: Chikungunya virus; assay: Antiviral activity against CHIKV infected in African green monkey Vero cells assessed as inhibition of viral adsorption at 20 uM measured after 4 days by crystal violet staining based assay relative to control; type: functional; conditions: 96 h, time 4 day
[12] = test system: Vero; assay: as §1; type: cell-based; conditions: chlorocebus sabaeus, vero

Row | Compound | CC50 [1] [µM] | inhibition at 20 µM [2] [%] | inhibition at 20 µM [3] [%] | other results
1 | CC(C)=C1[C@H](O)C[C@@]2(C)C/C=C(\C)CC[C@H]3O[C@]3(C)CC[C@H]12 | 430 | 33 | 30 | 
2 | CC(C)=C1C(=O)C[C@@]2(C)C[C@H]3O[C@]3(C)CC[C@H]3O[C@]3(C)CC[C@H]12 | 960 | 0 | 56 | 
3 | CC(C)=C1C(=O)C[C@@]2(C)C/C=C(\CO)CC[C@H]3O[C@]3(C)CC[C@H]12 | 800 | 71 | 60 | selectivity ratio [4]: 61; pEC50 [5]: 4.89
4 | CC(C)=C1[C@H]2CC[C@@]3(C)O[C@@H]3CC[C@@]3(C)O[C@@H]3C[C@]2(C)C[C@@H]1O | 1000 | 98 | 81 | selectivity ratio [4]: 1400; selectivity ratio [6]: 110; pEC50 [7]: 5.05; pEC50 [5]: 6.15
5 | CC(C)=C1[C@H](O)C[C@@]2(C)C[C@H]3O[C@]3(C)CC[C@H]3O[C@]3(C)CC[C@H]12 | 960 | 44 | 49 | 
6 | CC(C)=C1C(=O)C[C@@]2(C)C/C=C(\C)CC/C=C(\C)CC[C@H]12 [DOLABELLANE] | 150 | 0 | 0 | 
7 | NC(=O)c1ncn([C@@H]2O[C@H](CO)[C@@H](O)[C@H]2O)n1 [RIBAVIRIN] |  | 97 | 93 | 
8 | CC(=O)OC/C1=C\CC/C(C)=C/C[C@]2(C)CC(=O)C(=C(C)C)[C@H]2CC1 | 250 | 0 | 30 | 
9 | CC(C)=C1[C@H]2CC[C@@]3(C)O[C@@H]3CC/C(C)=C/C[C@]2(C)C[C@@H]1O | 580 | 45 | 99 | selectivity ratio [6]: 480; Activity [8]: 80%; pEC50 [7]: 5.92
10 | CC1=CC[C@@H](O)[C@]2(C)CC[C@@H]3C(=C(C)C)C(=O)C[C@@]3(C)C[C@@H]12 | 580 | 65 | 99 | selectivity ratio [6]: 280; pEC50 [7]: 5.68
11 | C=C(C)C1=CC[C@@]2(C)C[C@H]3O[C@]3(C)CC[C@H]3O[C@]3(C)CC[C@H]12 | 480 | 0 | 60 | 
12 | COC1(C)CC[C@@H](O)[C@]2(C)CC[C@@H]3C(=C(C)C)C(=O)C[C@@]3(C)C[C@@H]12 (relative stereo; 18) | 730 | 25 |  | selectivity ratio [6]: 410; inhibition at 20 µM [9]: > 90%; pEC50 [7]: 5.74; inhibition (INH) [3]: 100%
13 | CC(=O)O[C@@H]1C[C@@]2(C)C/C=C(\C)CC/C=C(\C)CC[C@@H]2C1=C(C)C | 100 | 99 | 62 | selectivity ratio [4]: 83; Activity [10]: Active; pEC50 [5]: 5.92; inhibition at 20 µM [11]: > 90%
14 | CC(C)=C1C(=O)C[C@@]2(C)C[C@H]3O[C@]3(C)CC/C=C(\C)CC[C@H]12 | 470 | 82 | 65 | selectivity ratio [4]: 50; pEC50 [5]: 5.02
15 | CC(C)=C1[C@H]2CC/C(C)=C/CC/C(C)=C/C[C@]2(C)C[C@@H]1O | 190 | 0 | 51 | 
16 | CC(C)=C1C(=O)C[C@@]2(C)C/C=C(\C)CC[C@H]3O[C@]3(C)CC[C@H]12 | 530 | 99 | 38 | selectivity ratio [4]: 440; Activity [10]: Active; pEC50 [5]: 5.92; inhibition at 20 µM [11]: > 90%
17 | CC(C)=C1C(=O)C[C@@]2(C)C/C=C(\C=O)CC[C@H]3O[C@]3(C)CC[C@H]12 | 750 | 39 | 99 | selectivity ratio [6]: 830; Activity [8]: 90%; pEC50 [7]: 6.05
18 | C=C(C)C1=CC[C@@]2(C)C/C=C(\C)CC/C=C(\CO)CC[C@H]12 | 600 | 0 | 61 | 
19 | CC(C)=C1C(=O)C[C@@]2(C)C/C=C(\C)CC/C=C(\C=O)CC[C@H]12 | 100 | 29 | 0 | 
20 | COC1(C)CC[C@@H](O)[C@]2(C)CC[C@@H]3C(=C(C)C)C(=O)C[C@@]3(C)C[C@@H]12 (relative stereo; 19) |  |  |  | CC50 [12]: 650 µM; inhibition (INH) ([2]; 20 µM): 40%; inhibition (INH) [3]: 59%
21 | C[C@H]1/C=C/[C@@]2(C)CC[C@@H](C(C)(C)O)[C@@H]2[C@@H](O)C[C@](C)(O)/C=C/C1 | 400 | 35 | 50 | 
